ChEMBL document CHEMBL5375952, “Discovery of Novel 8-Hydroxyquinoline Derivatives with Potent In Vitro and In Vivo Antifungal Activity” (J Med Chem, 2023)
Activity calls are given as the source filed them. The rule behind the calls is not given here.

What was measured:
Candida albicans [1] = test: Synergistic antifungal activity against FLC-resistant Candida albicans 11 assessed as MIC of FLC incubated for 48 hrs by broth microdilution method; assay type: functional
Candida albicans [2] = test: Synergistic antifungal activity against FLC-resistant Candida albicans 385 assessed as MIC of FLC incubated for 48 hrs by broth microdilution method; assay type: functional
Candida albicans [3] = test: Synergistic antifungal activity against FLC-resistant Candida albicans 646 assessed as MIC of FLC incubated for 48 hrs by broth microdilution method; assay type: functional
Candida albicans [4] = test: Synergistic antifungal activity against FLC-resistant Candida albicans 64548 assessed as MIC of FLC incubated for 48 hrs by broth microdilution method; assay type: functional
Candida albicans [5] = test: Synergistic antifungal activity against FLC-resistant Candida albicans 512681 assessed as MIC of FLC incubated for 48 hrs by broth microdilution method; assay type: functional
Candida albicans [6] = test: Synergistic antifungal activity against FLC-resistant Candida albicans 710452 assessed as MIC of FLC incubated for 48 hrs by broth microdilution method; assay type: functional
Candida albicans [7] = test: Synergistic antifungal activity against FLC-resistant Candida albicans 10 assessed as fungal growth inhibition incubated for 48 hrs in presence of FLC by broth microdilution method; assay type: functional
Candida albicans [8] = test: Synergistic antifungal activity against FLC-resistant Candida albicans 11 assessed as fungal growth inhibition incubated for 48 hrs in presence of FLC by broth microdilution method; assay type: functional
Candida albicans [9] = test: Synergistic antifungal activity against FLC-resistant Candida albicans 12 assessed as fungal growth inhibition incubated for 48 hrs in presence of FLC by broth microdilution method; assay type: functional
Candida albicans [10] = test: Synergistic antifungal activity against FLC-resistant Candida albicans 379 assessed as fungal growth inhibition incubated for 48 hrs in presence of FLC by broth microdilution method; assay type: functional
Candida albicans [11] = test: Synergistic antifungal activity against FLC-resistant Candida albicans 385 assessed as fungal growth inhibition incubated for 48 hrs in presence of FLC by broth microdilution method; assay type: functional
Candida albicans [12] = test: Synergistic antifungal activity against FLC-resistant Candida albicans 395 assessed as fungal growth inhibition incubated for 48 hrs in presence of FLC by broth microdilution method; assay type: functional
Candida albicans [13] = test: Synergistic antifungal activity against FLC-resistant Candida albicans 540 assessed as fungal growth inhibition incubated for 48 hrs in presence of FLC by broth microdilution method; assay type: functional
Candida albicans [14] = test: Synergistic antifungal activity against FLC-resistant Candida albicans 5740 assessed as fungal growth inhibition incubated for 48 hrs in presence of FLC by broth microdilution method; assay type: functional
Candida albicans [15] = test: Synergistic antifungal activity against FLC-resistant Candida albicans 64548 assessed as fungal growth inhibition incubated for 48 hrs in presence of FLC by broth microdilution method; assay type: functional
Candida albicans [16] = test: Synergistic antifungal activity against FLC-resistant Candida albicans 605141 assessed as fungal growth inhibition incubated for 48 hrs in presence of FLC by broth microdilution method; assay type: functional
Candida albicans [17] = test: Synergistic antifungal activity against FLC-resistant Candida albicans 710419 assessed as fungal growth inhibition incubated for 48 hrs in presence of FLC by broth microdilution method; assay type: functional
Candida albicans [18] = test: Synergistic antifungal activity against FLC-resistant Candida albicans 710506 assessed as fungal growth inhibition incubated for 48 hrs in presence of FLC by broth microdilution method; assay type: functional
Candida albicans [19] = test: Synergistic antifungal activity against FLC-resistant Candida albicans 14 assessed as fractional inhibitory concentration index incubated for 48 hrs in presence of FLC by broth microdilution method; assay type: functional
Candida albicans [20] = test: Synergistic antifungal activity against FLC-resistant Candida albicans 241 assessed as fractional inhibitory concentration index incubated for 48 hrs in presence of FLC by broth microdilution method; assay type: functional
Candida albicans [21] = test: Synergistic antifungal activity against FLC-resistant Candida albicans 305 assessed as fractional inhibitory concentration index incubated for 48 hrs in presence of FLC by broth microdilution method; assay type: functional
Candida albicans [22] = test: Synergistic antifungal activity against FLC-resistant Candida albicans 385 assessed as fractional inhibitory concentration index incubated for 48 hrs in presence of FLC by broth microdilution method; assay type: functional
Candida albicans [23] = test: Synergistic antifungal activity against FLC-resistant Candida albicans 538 assessed as fractional inhibitory concentration index incubated for 48 hrs in presence of FLC by broth microdilution method; assay type: functional
Candida albicans [24] = test: Synergistic antifungal activity against FLC-resistant Candida albicans 646 assessed as fractional inhibitory concentration index incubated for 48 hrs in presence of FLC by broth microdilution method; assay type: functional
Candida albicans [25] = test: Synergistic antifungal activity against FLC-resistant Candida albicans 819 assessed as fractional inhibitory concentration index incubated for 48 hrs in presence of FLC by broth microdilution method; assay type: functional
Candida albicans [26] = test: Synergistic antifungal activity against FLC-resistant Candida albicans 64548 assessed as fractional inhibitory concentration index incubated for 48 hrs in presence of FLC by broth microdilution method; assay type: functional
Candida albicans [27] = test: Synergistic antifungal activity against FLC-resistant Candida albicans 512681 assessed as fractional inhibitory concentration index incubated for 48 hrs in presence of FLC by broth microdilution method; assay type: functional
Candida albicans [28] = test: Synergistic antifungal activity against FLC-resistant Candida albicans 710419 assessed as fractional inhibitory concentration index incubated for 48 hrs in presence of FLC by broth microdilution method; assay type: functional
Candida albicans [29] = test: Synergistic antifungal activity against FLC-resistant Candida albicans 710506 assessed as fractional inhibitory concentration index incubated for 48 hrs in presence of FLC by broth microdilution method; assay type: functional
Candida albicans [30] = test: Synergistic antifungal activity against FLC-resistant Candida albicans 710554 assessed as fractional inhibitory concentration index incubated for 48 hrs in presence of FLC by broth microdilution method; assay type: functional
Candida albicans [31] = test: Synergistic antifungal activity against Candida albicans 0304103 assessed as fungal growth inhibition at 4 ug/ml incubated for 48 hrs in presence of FLC by time-kill assay; assay type: functional, organism-based; conditions: dose 4.0 µg/ml
Candida albicans [32] = test: Inhibition of hypha formation in Candida albicans SC5314 at 4 ug/ml incubated for 3 hrs by inverted phase contrast microscopy; assay type: functional, organism-based; conditions: dose 4.0 µg/ml
Candida albicans [33] = test: Inhibition of biofilm formation of Candida albicans SC5314 at 16 ug/ml incubated for 24 hrs by XTT assay relative to control; assay type: functional
Candida albicans [34] = test: Synergistic inhibition of biofilm formation of Candida albicans SC5314 at 2 ug/ml incubated for 24 hrs in presence of 0.0625 ug/ml of FLC by XTT assay relative to control; assay type: functional
Candida albicans [35] = test: Synergistic inhibition of biofilm formation of Candida albicans SC5314 incubated for 24 hrs in presence of FLC by XTT assay; assay type: functional, organism-based; conditions: dose <= 16.0 µg/ml
Candida albicans [36] = test: Synergistic inhibition of biofilm formation of Candida albicans SC5314 at 0.5 ug/ml incubated for 24 hrs in presence of 1 ug/ml of FLC by XTT assay relative to control; assay type: functional
[37] = Toxicity in C57BL/6 mouse infected with Candida albicans SC5314 assessed as animal survival at 2 mg/kg, ip measured after 20 days relative to control; assay type: organism-based; conditions: in vivo, 480 h, time 20 day
[38] = MRT (0 to t) in Sprague-Dawley rat at 2 mg/kg, iv by LC-MS/MS analysis; assay type: ADME, organism-based; conditions: in vivo
Candida albicans [39] = test: Antifungal activity against Candida albicans SC5314 assessed as fungal growth inhibition incubated for 48 hrs in presence of Cu2+ by broth microdilution method (reference value: […] ug/ml); assay type: functional

CCN(CC)c1ccc(C(NC(=O)C(C)C)c2ccc3cccnc3c2O)cc1 (centres undefined)
MIC (Candida albicans [1]): 0.25 µg/mL | MIC (Candida albicans [2]): 2 µg/mL | MIC (Candida albicans [3]): 1 µg/mL | MIC (Candida albicans [4]): 0.063 µg/mL | MIC (Candida albicans [5]): 0.25 µg/mL | MIC (Candida albicans [6]): 0.25 µg/mL | MIC (Candida albicans [7]): 0.008 µg/mL | MIC (Candida albicans [8]): 0.008 µg/mL | MIC (Candida albicans [9]): 0.008 µg/mL | MIC (Candida albicans [10]): 0.008 µg/mL | MIC (Candida albicans [11]): 0.008 µg/mL | MIC (Candida albicans [12]): 0.016 µg/mL | MIC (Candida albicans [13]): 0.016 µg/mL | MIC (Candida albicans [14]): 0.016 µg/mL | MIC (Candida albicans [15]): 0.031 µg/mL | MIC (Candida albicans [16]): 0.031 µg/mL | MIC (Candida albicans [17]): 0.031 µg/mL | MIC (Candida albicans [18]): 0.031 µg/mL | fractional inhibitory concentration index (FICI) (Candida albicans [19]): 0.133 | fractional inhibitory concentration index (FICI) (Candida albicans [20]): 0.039 | fractional inhibitory concentration index (FICI) (Candida albicans [21]): 0.039 | fractional inhibitory concentration index (FICI) (Candida albicans [22]): 0.078 | fractional inhibitory concentration index (FICI) (Candida albicans [23]): 0.047 | fractional inhibitory concentration index (FICI) (Candida albicans [24]): 0.133 | fractional inhibitory concentration index (FICI) (Candida albicans [25]): 0.133 | fractional inhibitory concentration index (FICI) (Candida albicans [26]): 0.063 | fractional inhibitory concentration index (FICI) (Candida albicans [27]): 0.127 | fractional inhibitory concentration index (FICI) (Candida albicans [28]): 0.064 | fractional inhibitory concentration index (FICI) (Candida albicans [29]): 0.035 | fractional inhibitory concentration index (FICI) (Candida albicans [30]): 0.066 | growth inhibition (GI) (Candida albicans [31]): Active | inhibition (Candida albicans [32]): inactive | inhibition at 16 µg/mL (Candida albicans [33]): 29.8% | inhibition at 2 µg/mL (Candida albicans [34]): 15.6% | inhibition (Candida albicans [35]): Dose-Dependent Effect | inhibition at 0.5 µg/mL (Candida albicans [36]): 48.7% | Survival [37]: 20% | MRT last [38]: 2.05 h

Oc1c(I)cc(Cl)c2cccnc12 [CLIOQUINOL]
MIC (Candida albicans [39]): 128 µg/mL
